Test results taken from US20170290774A1, “NEUROKININ-1 RECEPTOR ANTAGONIST COMPOSITION FOR TREATMENT OF DISEASES AND CONDITIONS OF THE RESPIRATORY TRACT” (PLUS VITECH, S.L., priority 2014, published 2017).

How the values were obtained:
TGFα = test: Immunohistochemistry of TGFα in respiratory tract tissue of sodium hypochlorite aerosol-treated rabbits; format: in vivo, New Zealand albino rabbits
Source text: (§1) It is known that the factors TGF-α, TGF-β 1, TGF-β 2, TGF-β 3, SPARC, MMP-3; MMP-7, MMP-9, MMP-11, MMP-13 and MMP-14, TGF-β, NF-kB, EGF, MMP-9, VEGF and TNF-α which are produced by lung cells (pneumocytes, fibroblasts and vascular endothelial cells) and inflammatory cells (macrophages, lymphocytes and polymorphonuclear leukocytes) are involved in the pathophysiology and development of said respiratory tract diseases. […] Herein, 27 New Zealand albino rabbits (New Zealand White Rabbit) with an initial average weight about 3 kg were used in this example. All subjects were administered an aerosol of a solution consisting of a mixture of water and sodium hypochlorite (35 g sodium hypochlorite per liter of water) at a rate of 5 mL of said solution by inhalation three times a day for 7 days (days 1 to 7 of experimentation). Subsequently, from days 3 to 7, a group of 3 rabbits (Group 1) was administered an oral dose of 10 mg/kg body weight per day, another group of 3 rabbits (Group 2) was administered an oral dose of 40 mg/kg body weight per day, a third group (Group 3) was administered an oral dose of 80 mg/kg body weight per day and a fourth group (Group 4) was administered an oral dose of 100 mg/kg body weight per day. […] This mixture was administered as an aerosol by inhalation, also from days 3 to 7, to a group of 3 rabbits (group 5) at a dose of 0.05 mg/kg body weight per day, to another group of three rabbits (Group 6) at a dose of 0.1 mg/kg body weight per day, to another group of three rabbits (Group 7) at a dose of 0.2 mg/kg body weight per day and to another group of three rabbits (Group 8) at a dose of 0.4 mg/kg body weight per day. A placebo consisting only of olive oil was administered from days 3 to 7 to a control group of 3 rabbits (placebo group). In parallel, 3 rabbits were kept under identical conditions but were not administered any treatment nor the aforementioned sodium hypochlorite solution (control group). […] On day 7 of the experiment all animals were euthanized and necropsied. […] Samples were taken at the peripheral level of the lung parenchyma, just below the pleural surface. Tissue samples were also taken from the nasal cavity, pharynx, larynx and bronchi. Immunohistochemistry studies were performed for all samples to evaluate the levels of the markers TGF-α, TGF-β 1, TGF-β 2, TGF-β 3 SPARC, MMP-3; MMP-7, MMP-9, MMP-11, MMP-14, TGF-β, TNF-α and VEGF. In said immunohistochemistry studies, a sample of each sample was dehydrated by treatment with increasing concentrations of ethanol and finally xylene. Subsequently said dried samples were embedded in paraffin, thus creating a block. Said paraffin blocks were cut on a microtome to a thickness of 5 μm, and the resulting sections (slices) were placed on slides suitable for conducting immunohistochemistry techniques. Subsequently, the sections were deparaffinised by immersion in xylene and then rehydrated through immersion in a series of solutions containing decreasing concentrations of ethanol and, finally, water. […] The samples were then allowed to cool to room temperature over 10 minutes. Endogenous peroxidase activity was blocked by treatment with 3% hydrogen peroxide over 30 min at room temperature. […] In order to verify the expression of NK1 receptors, the cell samples were incubated in the presence of anti-NK1 antibodies ([…], Sigma-Aldrich) diluted 1:1000 at 4° C. overnight. After this time they were washed in 0.05M Tris buffer at room temperature. Subsequently, Envision System-HRP (Dako) reagents were added for 30 min at room temperature. Once this time had expired, the samples were again washed with 0.05 M Tris buffer, and immunoreactivity was visualized by light microscopy with a chromogenic solution with 3,3'-diaminobenzidine (DAB+; Dako, USA). In order to differentiate the cell nuclei, these were lightly stained with haematoxylin. Samples that were not incubated with the primary antibody, but wherein this was replaced by a non-immune serum were used as negative controls. […]

TGFβ1 = test: Immunohistochemistry of TGFβ1 in respiratory tract tissue of sodium hypochlorite aerosol-treated rabbits; format: in vivo, New Zealand albino rabbits
Source text: as §1

CYP3A4 = biological target: T1, CYP3A4 (Homo sapiens, UniProt P08684); conditions: human hepatic microsomes; cited from earlier work
T1 construct: In vitro studies in which human hepatic microsomes were used; from tissue; host or cells: human hepatic (liver) microsomes
T1 sequence (P08684 whole entry): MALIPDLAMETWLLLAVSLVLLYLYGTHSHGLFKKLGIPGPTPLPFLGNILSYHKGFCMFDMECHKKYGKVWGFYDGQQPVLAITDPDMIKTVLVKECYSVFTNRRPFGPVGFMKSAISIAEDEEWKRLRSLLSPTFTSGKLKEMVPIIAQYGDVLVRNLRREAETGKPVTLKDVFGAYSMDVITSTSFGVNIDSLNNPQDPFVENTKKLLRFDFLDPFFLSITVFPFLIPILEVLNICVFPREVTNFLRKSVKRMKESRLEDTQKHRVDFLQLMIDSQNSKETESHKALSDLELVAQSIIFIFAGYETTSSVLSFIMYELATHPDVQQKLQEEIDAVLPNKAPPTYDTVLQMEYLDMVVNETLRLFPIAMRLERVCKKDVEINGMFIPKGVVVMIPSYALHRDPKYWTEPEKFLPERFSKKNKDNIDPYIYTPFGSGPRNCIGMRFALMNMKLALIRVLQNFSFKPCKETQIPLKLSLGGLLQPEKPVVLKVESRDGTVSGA

[1] = bronchial tissue, Group 1, oral 10 mg/kg per day
[2] = bronchial tissue, Group 2, oral 40 mg/kg per day
[3] = bronchial tissue, Group 3, oral 80 mg/kg per day
[4] = bronchial tissue, Group 4, oral 100 mg/kg per day
[5] = laryngeal tissue, Group 1, oral 10 mg/kg per day
[6] = laryngeal tissue, Group 2, oral 40 mg/kg per day
[7] = laryngeal tissue, Group 3, oral 80 mg/kg per day
[8] = laryngeal tissue, Group 4, oral 100 mg/kg per day
[9] = laryngeal tissue, Group 5, inhalation 0.05 mg/kg per day
[10] = laryngeal tissue, Group 6, inhalation 0.1 mg/kg per day
[11] = laryngeal tissue, Group 7, inhalation 0.2 mg/kg per day
[12] = laryngeal tissue, Group 8, inhalation 0.4 mg/kg per day
[13] = lung tissue, Group 1, oral 10 mg/kg per day
[14] = lung tissue, Group 2, oral 40 mg/kg per day
[15] = lung tissue, Group 3, oral 80 mg/kg per day
[16] = lung tissue, Group 4, oral 100 mg/kg per day
[17] = lung tissue, Group 6, inhalation 0.1 mg/kg per day
[18] = lung tissue, Group 7, inhalation 0.2 mg/kg per day
[19] = lung tissue, Group 8, inhalation 0.4 mg/kg per day
[20] = nasal cavity tissue, Group 1, oral 10 mg/kg per day
[21] = nasal cavity tissue, Group 2, oral 40 mg/kg per day
[22] = nasal cavity tissue, Group 3, oral 80 mg/kg per day
[23] = nasal cavity tissue, Group 4, oral 100 mg/kg per day
[24] = nasal cavity tissue, Group 5, inhalation 0.05 mg/kg per day
[25] = nasal cavity tissue, Group 6, inhalation 0.1 mg/kg per day
[26] = nasal cavity tissue, Group 7, inhalation 0.2 mg/kg per day
[27] = nasal cavity tissue, Group 8, inhalation 0.4 mg/kg per day
[28] = pharyngeal tissue, Group 1, oral 10 mg/kg per day
[29] = pharyngeal tissue, Group 2, oral 40 mg/kg per day
[30] = pharyngeal tissue, Group 3, oral 80 mg/kg per day
[31] = pharyngeal tissue, Group 4, oral 100 mg/kg per day
[32] = pharyngeal tissue, Group 5, inhalation 0.05 mg/kg per day
[33] = pharyngeal tissue, Group 6, inhalation 0.1 mg/kg per day
[34] = pharyngeal tissue, Group 7, inhalation 0.2 mg/kg per day
[35] = pharyngeal tissue, Group 8, inhalation 0.4 mg/kg per day

C[C@@H](OC1OCCN(Cc2nc(=O)[nH][nH]2)C1c1ccc(F)cc1)c1cc(C(F)(F)F)cc(C(F)(F)F)c1 (stereo in doubt) [Aprepitant, 5-([(2R,3S)-2-((R)-1-[3,5-bis(trifluoromethyl)phenyl]ethoxy)-3-(4-fluorophenyl)morpholino]methyl)-1H-1,2,4-triazol-3(2H)-one]
Percent increase in TGFα with respect to the control group (TGFα; [1]): 1,980.45% | Percent increase in TGFα with respect to the control group (TGFα; [2]): 1,540.45% | Percent increase in TGFα with respect to the control group (TGFα; [3]): 1,190.45% | Percent increase in TGFα with respect to the control group (TGFα; [4]): 873.34% | % Med G5/C: percent increase in marker TGFα with respect to the control group (TGFα; bronchial tissue, Group 5): 1,875.75% | % Med G6/C: percent increase in marker TGFα with respect to the control group (TGFα; bronchial tissue, Group 6): 1,267.45% | % Med G7/C: percent increase in marker TGFα with respect to the control group (TGFα; bronchial tissue, Group 7): 689.78% | % Med G8/C: percent increase in marker TGFα with respect to the control group (TGFα; bronchial tissue, Group 8): 209.45% | Percent increase in TGFα with respect to the control group (TGFα; [5]): 1,875.56% | Percent increase in TGFα with respect to the control group (TGFα; [6]): 1,500.45% | Percent increase in TGFα with respect to the control group (TGFα; [7]): 1,320.32% | Percent increase in TGFα with respect to the control group (TGFα; [8]): 1,101.28% | Percent increase in TGFα with respect to the control group (TGFα; [9]): 1,820.45% | Percent increase in TGFα with respect to the control group (TGFα; [10]): 1,250.74% | Percent increase in TGFα with respect to the control group (TGFα; [11]): 783.78% | Percent increase in TGFα with respect to the control group (TGFα; [12]): 234.67% | Percent increase in TGFα with respect to the control group (TGFα; [13]): 1,717.76% | Percent increase in TGFα with respect to the control group (TGFα; [14]): 1,308.73% | Percent increase in TGFα with respect to the control group (TGFα; [15]): 1,257.29% | Percent increase in TGFα with respect to the control group (TGFα; [16]): 1,195.15% | Percent increase in TGFα with respect to the control group (TGFα; [17]): 937.00% | Percent increase in TGFα with respect to the control group (TGFα; [18]): 402.39% | Percent increase in TGFα with respect to the control group (TGFα; [19]): 147.11% | Percent increase in TGFα with respect to the control group (TGFα; [20]): 2,824.89% | Percent increase in TGFα with respect to the control group (TGFα; [21]): 1,907.98% | Percent increase in TGFα with respect to the control group (TGFα; [22]): 1,347.22% | Percent increase in TGFα with respect to the control group (TGFα; [23]): 952.16% | Percent increase in TGFα with respect to the control group (TGFα; [24]): 2,908.21% | Percent increase in TGFα with respect to the control group (TGFα; [25]): 764.46% | Percent increase in TGFα with respect to the control group (TGFα; [26]): 495.68% | Percent increase in TGFα with respect to the control group (TGFα; [27]): 156.67% | Percent increase in TGFα with respect to the control group (TGFα; [28]): 2,274.76% | Percent increase in TGFα with respect to the control group (TGFα; [29]): 1,907.77% | Percent increase in TGFα with respect to the control group (TGFα; [30]): 1,780.45% | Percent increase in TGFα with respect to the control group (TGFα; [31]): 1,550.34% | Percent increase in TGFα with respect to the control group (TGFα; [32]): 1,946.43% | Percent increase in TGFα with respect to the control group (TGFα; [33]): 1,364.46% | Percent increase in TGFα with respect to the control group (TGFα; [34]): 699.78% | Percent increase in TGFα with respect to the control group (TGFα; [35]): 101.34% | Percent increase in TGFβ1 with respect to the control group (TGFβ1; [1]): 1,234.56% | Percent increase in TGFβ1 with respect to the control group (TGFβ1; [2]): 984.45% | Percent increase in TGFβ1 with respect to the control group (TGFβ1; [3]): 768.32% | Percent increase in TGFβ1 with respect to the control group (TGFβ1; [4]): 502.23% | % Med G5/C: percent increase in marker TGFβ1 with respect to the control group (TGFβ1; bronchial tissue, Group 5): 1,103.34% | % Med G6/C: percent increase in marker TGFβ1 with respect to the control group (TGFβ1; bronchial tissue, Group 6): 708.45% | % Med G7/C: percent increase in marker TGFβ1 with respect to the control group (TGFβ1; bronchial tissue, Group 7): 302.34% | % Med G8/C: percent increase in marker TGFβ1 with respect to the control group (TGFβ1; bronchial tissue, Group 8): 124.37% | Percent increase in TGFβ1 with respect to the control group (TGFβ1; [5]): 1,567.67% | Percent increase in TGFβ1 with respect to the control group (TGFβ1; [6]): 1,278.89% | Percent increase in TGFβ1 with respect to the control group (TGFβ1; [7]): 1,067.78% | Percent increase in TGFβ1 with respect to the control group (TGFβ1; [8]): 988.78% | Percent increase in TGFβ1 with respect to the control group (TGFβ1; [9]): 1,398.78% | Percent increase in TGFβ1 with respect to the control group (TGFβ1; [10]): 760.87% | Percent increase in TGFβ1 with respect to the control group (TGFβ1; [11]): 320.34% | Percent increase in TGFβ1 with respect to the control group (TGFβ1; [12]): 102.23% | Percent increase in TGFβ1 with respect to the control group (TGFβ1; [13]): 1,277.48% | Percent increase in TGFβ1 with respect to the control group (TGFβ1; [14]): 990.28% | Percent increase in TGFβ1 with respect to the control group (TGFβ1; [15]): 858.27% | Percent increase in TGFβ1 with respect to the control group (TGFβ1; [16]): 759.25% | Percent increase in TGFβ1 with respect to the control group (TGFβ1; lung tissue, Group 5, inhalation 0.05 mg/kg per day): 1,166.88% | Percent increase in TGFβ1 with respect to the control group (TGFβ1; [17]): 492.89% | Percent increase in TGFβ1 with respect to the control group (TGFβ1; [18]): 270.24% | Percent increase in TGFβ1 with respect to the control group (TGFβ1; [19]): 123.01% | Percent increase in TGFβ1 with respect to the control group (TGFβ1; [20]): 2,191.33% | Percent increase in TGFβ1 with respect to the control group (TGFβ1; [21]): 1,562.26% | Percent increase in TGFβ1 with respect to the control group (TGFβ1; [22]): 1,491.16% | Percent increase in TGFβ1 with respect to the control group (TGFβ1; [23]): 1,373.96% | Percent increase in TGFβ1 with respect to the control group (TGFβ1; [24]): 2,065.52% | Percent increase in TGFβ1 with respect to the control group (TGFβ1; [25]): 745.49% | Percent increase in TGFβ1 with respect to the control group (TGFβ1; [26]): 480.80% | Percent increase in TGFβ1 with respect to the control group (TGFβ1; [27]): 138.39% | Percent increase in TGFβ1 with respect to the control group (TGFβ1; [28]): 2,198.45% | Percent increase in TGFβ1 with respect to the control group (TGFβ1; [29]): 1,562.45% | Percent increase in TGFβ1 with respect to the control group (TGFβ1; [30]): 1,208.45% | Percent increase in TGFβ1 with respect to the control group (TGFβ1; [31]): 1,001.31% | Percent increase in TGFβ1 with respect to the control group (TGFβ1; [32]): 1,804.23% | Percent increase in TGFβ1 with respect to the control group (TGFβ1; [33]): 1,220.34% | Percent increase in TGFβ1 with respect to the control group (TGFβ1; [34]): 609.67% | Percent increase in TGFβ1 with respect to the control group (TGFβ1; [35]): 121.89% | metabolising enzyme (CYP3A4): principally metabolized by CYP3A4
